Measurements reported in ChEMBL document CHEMBL3421572, “Synthesis of Schiff base derivatives of 4-(2-aminoethyl)-benzenesulfonamide with inhibitory activity against carbonic anhydrase isoforms I, II, IX and XII” (Bioorg Med Chem Lett, 2015).

Key:
[1] = molecular target: Carbonic anhydrase 9 (Homo sapiens, UniProt Q16790)
[2] = molecular target: Carbonic anhydrase 1 (Homo sapiens, UniProt P00915)
Description: Inhibition of recombinant human cytosolic form of carbonic anhydrase-1 preincubated for 15 mins by stopped flow CO2 hydration assay

[3] = molecular target: Carbonic anhydrase 12 (Homo sapiens, UniProt O43570)
Description: Inhibition of recombinant human transmembrane, tumor-associated form of carbonic anhydrase-12 preincubated for 15 mins by stopped flow CO2 hydration assay

[4] = Chemical stability of the compound in HEPES buffer assessed as compound remaining at 10 mg at pH 7.4 measured at 0 hr by HPLC method; type: physicochemical; details: read-out: Stability
[5] = Chemical stability of the compound in HEPES buffer assessed as compound remaining at 10 mg at pH 7.4 measured at 3 hrs by HPLC method; type: physicochemical; details: read-out: Stability
[6] = Chemical stability of the compound in HEPES buffer assessed as compound remaining at 10 mg at pH 7.4 measured at 10 hrs by HPLC method; type: physicochemical; details: read-out: Stability
[7] = Chemical stability of the compound in HEPES buffer assessed as compound remaining at 10 mg at pH 7.4 measured at 5 hrs by HPLC method; type: physicochemical; details: read-out: Stability
[8] = Chemical stability of the compound in HEPES buffer assessed as compound remaining at 10 mg at pH 7.4 measured at 24 hrs by HPLC method; type: physicochemical; details: read-out: Stability

Chain of Carbonic anhydrase 1 (P00915 whole entry): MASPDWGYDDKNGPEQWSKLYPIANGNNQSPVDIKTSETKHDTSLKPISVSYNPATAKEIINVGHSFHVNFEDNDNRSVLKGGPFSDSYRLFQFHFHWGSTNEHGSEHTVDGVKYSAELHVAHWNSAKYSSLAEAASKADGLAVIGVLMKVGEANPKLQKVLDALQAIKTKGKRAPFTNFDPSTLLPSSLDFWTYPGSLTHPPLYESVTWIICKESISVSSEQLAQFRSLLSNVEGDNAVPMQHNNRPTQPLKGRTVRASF
Chain of Carbonic anhydrase 12 (O43570 whole entry): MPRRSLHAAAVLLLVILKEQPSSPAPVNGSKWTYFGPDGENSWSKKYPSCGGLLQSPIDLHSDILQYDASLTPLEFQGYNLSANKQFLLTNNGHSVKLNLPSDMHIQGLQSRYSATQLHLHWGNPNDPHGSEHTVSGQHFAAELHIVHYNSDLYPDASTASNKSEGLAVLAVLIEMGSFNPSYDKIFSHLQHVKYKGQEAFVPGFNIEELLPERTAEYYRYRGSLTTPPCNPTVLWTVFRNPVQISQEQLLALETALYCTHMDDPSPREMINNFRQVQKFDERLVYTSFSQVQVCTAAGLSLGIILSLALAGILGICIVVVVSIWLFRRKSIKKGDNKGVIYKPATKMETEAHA

NS(=O)(=O)c1ccc(CC/N=C\c2cc(Br)cc(Br)c2O)cc1
Ki [1]: 163 nM

Cc1ccc(CNCCc2ccc(S(N)(=O)=O)cc2)cc1
Ki [1]: 10.2 nM

NS(=O)(=O)c1ccc(CC/N=C\c2cc(Cl)ccc2O)cc1
Ki [1]: 106 nM

NS(=O)(=O)c1ccc(CCNCc2ccccc2O)cc1
Ki [1]: 3.9 nM

Cc1ccc(/C=N\CCc2ccc(S(N)(=O)=O)cc2)cc1
Ki [1]: 123 nM

NS(=O)(=O)c1ccc(CC/N=C\c2cc(Br)ccc2O)cc1
Ki [1]: 187 nM

NS(=O)(=O)c1ccc(CC/N=C\c2ccccc2O)cc1
Ki [2]: 393 nM | Ki [3]: 46.8 nM | Ki [1]: 138 nM

NS(=O)(=O)c1ccc(CC/N=C\c2cc(Cl)cc(Cl)c2O)cc1
Ki [1]: 190 nM

NS(=O)(=O)c1ccc(CCNCc2cc(Br)ccc2O)cc1
Ki [1]: 4.3 nM

NS(=O)(=O)c1ccc(CC/N=C\c2ccc(OCc3ccccc3)cc2)cc1
Ki [1]: 230 nM

Cc1cccc(CNCCc2ccc(S(N)(=O)=O)cc2)c1O
Ki [1]: 3.7 nM

COc1ccc(/C=N\CCc2ccc(S(N)(=O)=O)cc2)cc1
remaining at 0 h [4]: 100% | remaining at 3 h [5]: 100% | remaining at 10 h [6]: 43% | remaining at 5 h [7]: 72% | remaining at 24 h [8]: 8% | Ki [1]: 231 nM

NS(=O)(=O)c1ccc(CCNCc2cc(Cl)ccc2O)cc1
Ki [1]: 15.6 nM

NS(=O)(=O)c1ccc(CC/N=C\c2ccccc2)cc1
remaining at 0 h [4]: 100% | remaining at 3 h [5]: 100% | remaining at 10 h [6]: 51% | remaining at 5 h [7]: 89% | remaining at 24 h [8]: 14% | Ki [1]: 220 nM

NS(=O)(=O)c1ccc(CCNCc2ccccc2)cc1
remaining at 0 h [4]: 100% | remaining at 3 h [5]: 100% | remaining at 10 h [6]: 100% | remaining at 5 h [7]: 100% | Ki [3]: 6.3 nM | remaining at 24 h [8]: 100% | Ki [1]: 4.3 nM

COc1ccc(CNCCc2ccc(S(N)(=O)=O)cc2)cc1
remaining at 0 h [4]: 100% | remaining at 3 h [5]: 100% | remaining at 10 h [6]: 100% | Ki [2]: 4.6 nM | remaining at 5 h [7]: 100% | Ki [3]: 37.7 nM | remaining at 24 h [8]: 100%

Cc1cccc(/C=N\CCc2ccc(S(N)(=O)=O)cc2)c1O
Ki [1]: 295 nM

NS(=O)(=O)c1ccc(CCNCc2cc(Br)cc(Br)c2O)cc1
Ki [1]: 4.1 nM

CCN[C@H]1C[C@H](C)S(=O)(=O)c2sc(S(N)(=O)=O)cc21 [DORZOLAMIDE]
Ki [3]: 3 nM

CN(C)c1ccc(/C=N\CCc2ccc(S(N)(=O)=O)cc2)cc1
Ki [2]: 453 nM | Ki [3]: 3120 nM | Ki [1]: 39.1 nM

NS(=O)(=O)c1ccc(CCNCc2ccc(OCc3ccccc3)cc2)cc1
Ki [1]: 2.9 nM
